Experimental data taken from US20260347403A1, “FUNGICIDAL COMPOUND” (priority 2022, published 2026).
Several values for one entry are separate records, joined by “and”; a condition that tells them apart may be missing. Identical values can stand only once. Like-named read-outs stand apart in the source and are kept apart here. Numbered stars: 1 amine (or outer) side, 2 acyl side, 3 side chain; on linkers, the order of the positions; unused ones are H or OH. Bridge positions count the residues as written; N and C are the ends. Square brackets hold non-standard residues; d marks the D form. Peptide text beside a SMILES is read from it. * marks the point of attachment. Tridecanoyl(12-Me) = CC(C)CCCCCCCCCCC(=O)*; X1 = NC(=O)CC(O)C(N[*:1])C(=O)[*:2]; NMeF = CN[CH](Cc1ccccc1)C(=O)O; NMeN = CN[CH](CC(N)=O)C(=O)O; X2 = CCC(C)CCCCCCCCCCC(=O)*

Tests used:
[1] = test system: Mycosphaerella arachidis; assay: Liquid culture, Mycosphaerella arachidis (Cercospora arachidicola), early leaf spot, 4-5 days; type: cell-based; settings: Mycosphaerella arachidis, read-out: % reduction fungal growth
Protocol: (§1) Mycelia fragments or conidia suspensions of a fungus, prepared either freshly from liquid cultures of the fungus or from cryogenic storage, were directly mixed into nutrient broth.
(§2) A stock solution for compound of Formula I(a) and Formula I(b) was produced in DMSO (max. 10 mg/ml), which was diluted with water plus 0.025% Tween®20 to produce a 10× concentrated sample and 10 μl of this solution was pipetted into a microtiter plate (96-well format). The nutrient broth containing the fungal spores/mycelia fragments was then added to give an end concentration of the tested compound. The test plates were incubated in the dark at 24 °C and 96% rh. The inhibition of fungal growth was determined photometrically after 2-7 days, depending on the pathosystem, and percent antifungal activity relative to the untreated check was calculated.
(§3) The effect of the test compound (Formula I(a), I(b) and Lipopeptin A) was tested against the following fungi under the conditions as outlined above and specifically herein below:
Mycosphaerella arachidis (Cercospora arachidicola)/liquid culture (early leaf spot) Conidia of the fungus from cryogenic storage were directly mixed into nutrient broth (PDB potato dextrose broth). The inhibition of growth was determined photometrically 4-5 days after application.

[2] = test system: Botryotinia fuckeliana; assay: Liquid culture, Botryotinia fuckeliana (Botrytis cinerea), Gray Mould, 3-4 days; type: cell-based
Protocol: as §1, §2, §3
Botryotinia fuckeliana (Botrytis cinerea)/Liquid Culture (Gray Mould)
Conidia of the fungus from cryogenic storage were directly mixed into nutrient broth (Vogels broth). The inhibition of growth is determined photometrically 3-4 days after application.

[3] = test system: Puccinia recondita; assay: Leaf disc mixture assay with malonomicin, Puccinia recondita, curative spray timing, 8 dpi; type: in vivo, Puccinia recondita on wheat (cultivar Kanzler)
Protocol: A stock solution for the lipopeptide compound of Formula I(a) was produced in DMSO (max. 10 mg/ml). Malonomicin was produced according to Law et al, 2018 (Nature Catalys is |VOL 1|DECEMBER 2018|977-984). A stock solution of malonomicin was produced in water plus 0.025% Tween®20.
Assays to test efficacy of mixtures of compound of Formula I(a) in combination with malonomicin on the control of fungal pathogens in a leaf disc assay were designed for two 24well plates.
Table 22 and Table 23. Outline of 24well testplate (1) and testplate (2) including concentration of compounds sprayed per well. The upper number in the cell indicates compound of Formula I(a) concentration (ppm), the lower number malonomicin concentration (ppm). Column (1) holds a dilution series of compound of Formula I(a), row (2-D) hold a dilution series of malonomicin. Well 2-D-(1) represents an untreated check. This design was applied for tests including Puccinia recondita (EPPO code: PUCCRE) with preventive and curative spray timing.
A first set of master plates with 1× concentrated spray solution of the lipopeptide compound of Formula I(a) stock diluted in water with concentrations according to table 22, table 23, table 25 or table 26, respectively, was prepared. Each well contained 2% DMSO and 0.025% Tween20. Accordingly, a second set of master plates with 1× concentrated malonomicin stock diluted in water was prepared. Each well of the second set contained 0.025% Tween20. Leaf segments placed on agar in 24well plates were sprayed with 8 μl of solution from the master plate containing the lipopeptide compound of Formula I(a) and the leaf segments were let to dry, followed 2 hours later by 8 μl of solution from the master plate containing malonomicin. After second sprays had dried, leaf segments were infected with fungal spores to obtain a preventive application timing. Alternatively, leaf segments infected one day before spray of the compounds were used, resulting in a curative spray timing. In addition, several plates were produced where leaf segments were sprayed 2× in absence of test compound (with only DMSO and Tween20), representing the untreated check samples. For each leaf segment percent leaf coverage of disease symptoms was assessed. Percent leaf coverage reduction relative to the untreated check was calculated. Efficacy of the mixtures was tested in duplicate and on different fungal species. Reported efficacy values are the average of two replicate results.
Puccinia recondita (EPPO Code: PUCCRE) with Curative Spray Timing.
Wheat (cultivar Kanzler) leaf segments are placed on agar in multiwell plates (24-well format). The leaf disks are then inoculated with a spore suspension of the fungus. One day after inoculation the test solution is sprayed (8 ul per well). After appropriate incubation the activity of a compound is assessed 8 dpi (days after inoculation) as curative fungicidal activity

[4] = test system: Zymoseptoria tritici; assay: Leaf painting assay in wheat seedling, Zymoseptoria tritici; type: in vivo, Zymoseptoria tritici on wheat (variety Riband); settings: for % reduction of fungal growth: middle segment; for control on the treated area (middle segment): up to, Table 6, Zymoseptoria tritici
Protocol: Wheat seedlings of the variety Riband (for Zymoseptoria tritici trials) or variety Arina (for Puccinia recondite trials) were grown in a glasshouse until 14 d after seeding. At this time, such seedlings usually have a first leaf fully emerged (designated L1), a second leaf fully emerged (L2) and a third leaf (L3) that was partially emerged and in the process of development. Using a permanent pen, two dots were applied on the second leaf such as to generate three segments of roughly equal size: Segment A (at the base), segment B (middle part) and segment C (upper part of the leaf). A stock solution of the test compound was produced in DMSO at a concentration of 10′000 ppm. […] The diluted compound was applied to the middle segment of L2 using a conventional cotton stick; the cotton stick was soaked in the diluted compound and rubbed several times on the adaxial leaf surface between the two marks. 1 day later, the complete plant was inoculated with a fungal spore suspension using a paint brush and application of the spore suspension until before run-off.
For infection with Zymoseptoria tritici: The test plants were inoculated by spraying a spore suspension on them 1 day after application (1.5Mio spores per ml in water supplemented with 0.01% Tween®20). After an incubation period of 4 days at 22 °C/21 °C. (day/night) and 95% rh, the inoculated test plants were kept at 22 °C/21 °C (day/night) and 70% rh in a greenhouse. Efficacy was assessed by visual evaluation directly when an appropriate level of disease appears on untreated check plants (usually >80% disease cover at 16-19 days after inoculation).
The three segments of the leaf were evaluated individually.

SMILES | inhibition of growth at 0.41 ppm ([1]; Table 2) [%] | inhibition of growth at 1.2 ppm ([1]; Table 2) [%] | inhibition of growth at 3.7 ppm ([1]; Table 2) [%] | inhibition of growth at 11 ppm ([1]; Table 2) [%] | inhibition of growth at 33 ppm ([1]; Table 2) [%] | inhibition of growth at 100 ppm ([1]; Table 2) [%] | inhibition of growth at 0.41 ppm ([1]; Table 3) [%] | inhibition of growth at 1.2 ppm ([1]; Table 3) [%] | inhibition of growth at 3.7 ppm ([1]; Table 3) [%] | inhibition of growth at 11 ppm ([1]; Table 3) [%] | inhibition of growth at 33 ppm ([1]; Table 3) [%] | inhibition of growth at 100 ppm ([1]; Table 3) [%] | % reduction fungal growth ([2]; Table 2, 0.41 ppm) [%] | % reduction fungal growth ([2]; Table 2, 1.2 ppm) [%] | % reduction fungal growth ([2]; Table 2, 3.7 ppm) [%] | % reduction fungal growth ([2]; Table 2, 11 ppm) [%] | % reduction fungal growth ([2]; Table 2, 33 ppm) [%] | % reduction fungal growth ([2]; Table 2, 100 ppm) [%] | % reduction fungal growth ([2]; Table 3, 11 ppm) [%] | % reduction fungal growth ([2]; Table 3, 33 ppm) [%] | further results
CC(C)CCCCCCCCCCC(=O)NC1C(=O)NC(CC(=O)O)C(=O)NC(C(O)CC(N)=O)C(=O)NC(CO)C(=O)N(C)C(CC(N)=O)C(=O)N(C)C(Cc2ccccc2)C(=O)NC(CCC(N)=O)C(=O)NC(CCC(=O)O)C(=O)OC1C (stereo not shown) [Formula I(a)] ({Tridecanoyl(12-Me)}-TD[X1]S[NMeN][NMeF]QE; ester 1-C; configuration not given here) | 0 | 0 | 100 | 100 | 100 | 100 | 0 | 0 | 0 | 70 | 100 | 100 | 0 | 0 | 0 | 0 | 0 | 50 | 50 | 70 | % reduction fungal growth ([2]; Table 3, 3.7 ppm): 50%; % reduction fungal growth ([2]; Table 3, 100 ppm): 70%; control of fungal growth (% reduction of symtoms on the leaf segment as compared to untreated check) ([3]; column (1): compound of Formula I(a) alone, lines 1-A to 2-C = 200, 100, 50, 25, 12.5, 6.25, 3.13 ppm): 0% and 10%; % reduction of fungal growth ([4]; 20 ppm): 0%; % reduction of fungal growth ([4]; 200 ppm): 46%; control on the treated area (middle segment) [4]: up to 70%
CCC(C)CCCCCCCCCCC(=O)NC1C(=O)NC(CC(=O)O)C(=O)NC(C(O)CC(N)=O)C(=O)NC(CO)C(=O)N(C)C(CC(N)=O)C(=O)N(C)C(Cc2ccccc2)C(=O)NC(CCC(N)=O)C(=O)NC(CCC(=O)O)C(=O)OC1C (stereo not shown) [Formula I(b)] (X2-TD[X1]S[NMeN][NMeF]QE; ester 1-C; configuration not given here) | 0 | 0 | 0 | 90 | 100 | 100 | 0 | 0 | 0 | 100 | 100 | 100 | 0 | 0 | 0 | 0 | 0 | 50 | 50 | 50 | % reduction fungal growth ([2]; Table 3, 100 ppm): 70%; % reduction of fungal growth ([4]; 20 ppm): 0%; % reduction of fungal growth ([4]; 200 ppm): 31%; control on the treated area (middle segment) [4]: up to 70%
NC[C@@H]1NC(=O)C(C(=O)CC(NC(=O)[C@@H](N)CO)(C(=O)O)C(=O)O)=C1O [malonomicin, {[(2S)-2-amino-3-hydroxypropanoyl]amino}{2-[(5S)-5-(aminomethyl)-4-hydroxy-2-oxo-2,5-dihydro-1H-pyrrol-3-yl]-2-oxoethyl}malonic acid] |  |  |  |  |  |  |  |  |  |  |  |  |  |  |  |  |  |  |  |  | control of fungal growth (% reduction of symtoms on the leaf segment as compared to untreated check) ([3]; column (2): malonomicin 200 ppm, compound of Formula I(a) lines 1-A to 2-D = 200, 100, 50, 25, 12.5, 6.25, 3.13, 0 ppm): 100%; control of fungal growth (% reduction of symtoms on the leaf segment as compared to untreated check) ([3]; column (3): malonomicin 20 ppm, compound of Formula I(a) lines 1-A to 2-D = 200, 100, 50, 25, 12.5, 6.25, 3.13, 0 ppm): 100%; control of fungal growth (% reduction of symtoms on the leaf segment as compared to untreated check) ([3]; column (4): malonomicin 6.67 ppm, compound of Formula I(a) lines 1-A to 2-D = 200, 100, 50, 25, 12.5, 6.25, 3.13, 0 ppm): 100%; control of fungal growth (% reduction of symtoms on the leaf segment as compared to untreated check) ([3]; column (5): malonomicin 2.22 ppm, compound of Formula I(a) lines 1-A to 2-D = 200, 100, 50, 25, 12.5, 6.25, 3.13, 0 ppm): 70%; control of fungal growth (% reduction of symtoms on the leaf segment as compared to untreated check) ([3]; column (6): malonomicin 0.74 ppm, compound of Formula I(a) lines 1-A to 2-D = 200, 100, 50, 25, 12.5, 6.25, 3.13, 0 ppm): 35%
